Reference: US20180194799A1, “BETUIN DERIVATIVES FOR PREVENTING OR TREATING HIV INFECTIONS” (GLAXOSMITHKLINE INTELLECTUAL PROPERTY (NO.2) LIMITED, priority 2015, published 2018)
pEC50, pIC50: −log10 of the molar value. Counter-ions that a name gives are not always drawn.

Columns and labels:
NL4-3 wt = experiment: MT4 Cell Antiviral Assay, NL4-3 wt; type: cell-based, HIV-1; conditions: Human immunodeficiency virus 1, NL43, 120 h; HIV MT4 Antiviral Cell Assay of Example 17, 5 days incubation
V370A = experiment: MT4 Cell Antiviral Assay, V370A; type: cell-based, HIV-1; conditions: Human immunodeficiency virus 1, MT4, 120 h, read-out: EC50 V370A (nM)
HIV = conditions: cited from earlier work
HIV-1 (strain IIIB) = experiment: MT4 Cell Antiviral Assay (general statements and standard); type: cell-based; conditions: Human immunodeficiency virus 1, IIIB; control and standard in every assay, propidium iodide readout, MT4 cells; read-out: expected range of IC50 values
Method: Antiviral HIV activity and compound-induced cytotoxicity were measured in parallel by means of a propidium iodide based procedure in the human T-cell lymphotropic virus transformed cell line MT4. Aliquots of the test compounds were serially diluted in medium (RPMI 1640, 10% fetal calf serum (FCS), and gentamycin) in 96-well plates (Costar 3598) using a Cetus Pro/Pette. Exponentially growing MT4 cells were harvested and centrifuged at 1000 rpm for 10 min in a Jouan centrifuge (model CR 4 12). Cell pellets were resuspended in fresh medium (RPMI 1640, 20% FCS, 20% IL-2, and gentamycin) to a density of 5×10^5 cells/ml. Cell aliquots were infected by the addition of HIV-1 (strain IIIB) diluted to give a viral multiplicity of infection of 100×TCID50. […]
For propidium iodide readout, 27 μl of 5% Nonidet-40 was added to each well of the incubation plate. […]
For MTS readout, 20 μl CellTiter 96 AQ One Solution reagent (Promega #G3582) was added to each well. At 75 minutes following the addition of MTS reagent, absorbance was read at 492 nm using a Tecan Sunrise 96-well plate reader. […]
For each assay plate, the results (relative fluorescence units, rfU, or OD values) of wells containing uninfected cells or infected cells with no compound were averaged, respectively. […] Percent of cells remaining is determined by the following formula: […]

pIC50 (HIV-1 (strain IIIB))	Structure (SMILES)	pEC50 (NL4-3 wt)	EC50 (V370A) [nM]	HIV viral load reduction (mean) (HIV; patients with trough levels >=20 μg/mL and without baseline Gag polymorphisms at Q369, V370 or T371) [log10/mL]	viral load reduction versus patients without Gag polymorphisms (HIV; users with Gag polymorphisms at Q369, V370 or T371)
–	CC(C)C1=C2[C@H]3CC[C@@H]4[C@@]5(C)CC=C(c6ccc(C(=O)O)cc6)C(C)(C)C5CC[C@@]4(C)[C@]3(C)CC[C@@]2([C@@H](O)CN(CC2CCC2)C(=O)CN2CCCC2)CC1=O (stereo in doubt) [Example 5, 4-((3aR,5aR,5bR,7aR,11aS,11bR,13aS)-3a-((R)-2-(N-(cyclobutylmethyl)-2-(pyrrolidin-1-yl)acetamido)-1-hydroxyethyl)-1-isopropyl-5a,5b,8,8,11a-pentamethyl-2-oxo-3,3a,4,5,5a,5b,6,7,7a,8,11,11a,11b,12,13,13a-hexadecahydro-2H-cyclopenta[a]chrysen-9-yl)benzoic acid hydrochloride]	7.45	3.8	–	–
–	CC(C)C1=C2[C@H]3CC[C@@H]4[C@@]5(C)CC=C(c6ccc(C(=O)O)cc6)C(C)(C)C5CC[C@@]4(C)[C@]3(C)CC[C@@]2([C@@H](O)CN(CC2CC2)C(=O)CN2CCCC2=O)CC1=O (stereo in doubt) [Example 4, 4-((3aR,5aR,5bR,7aR,11aS,11bR,13aS)-3a-((R)-2-(N-(cyclopropylmethyl)-2-(2-oxopyrrolidin-1-yl)acetamido)-1-hydroxyethyl)-1-isopropyl-5a,5b,8,8,11a-pentamethyl-2-oxo-3,3a,4,5,5a,5b,6,7,7a,8,11,11a,11b,12,13,13a-hexadecahydro-2H-cyclopenta[a]chrysen-9-yl)benzoic acid]	7.99	1020	–	–
–	CC(C)C1=C2[C@H]3CC[C@@H]4[C@@]5(C)CC=C(c6ccc(C(=O)O)cc6)C(C)(C)[C@@H]5CC[C@@]4(C)[C@]3(C)CC[C@@]2([C@@H](O)CNCC2CC2)CC1=O [Example 9, 4-((3aR,5aR,5bR,7aR,11aS,11bR,13aS)-3a-((R)-2-((cyclopropylmethyl)amino)-1-hydroxyethyl)-1-isopropyl-5a,5b,8,8,11a-pentamethyl-2-oxo-3,3a,4,5,5a,5b,6,7,7a,8,11,11a,11b,12,13,13a-hexadecahydro-2H-cyclopenta[a]chrysen-9-yl)benzoic acid hydrochloride]	7.16	10000	–	–
–	COCC(=O)N(CC1CC1)C[C@H](O)[C@@]12CC[C@]3(C)[C@H](CC[C@@H]4[C@@]5(C)CC=C(c6ccc(C(=O)O)cc6)C(C)(C)C5CC[C@]43C)C1=C(C(C)C)C(=O)C2 (stereo in doubt) [Example 2, 4-((3aR,5aR,5bR,7aR,11aS,11bR,13aS)-3a-((R)-2-(N-(cyclopropylmethyl)-2-methoxyacetamido)-1-hydroxyethyl)-1-isopropyl-5a,5b,8,8,11a-pentamethyl-2-oxo-3,3a,4,5,5a,5b,6,7,7a,8,11,11a,11b,12,13,13a-hexadecahydro-2H-cyclopenta[a]chrysen-9-yl)benzoic acid]	7.81	389	–	–
–	CC(C)C1=C2[C@H]3CC[C@@H]4[C@@]5(C)CC=C(c6ccc(C(=O)O)cc6)C(C)(C)C5CC[C@@]4(C)[C@]3(C)CC[C@@]2([C@@H](O)CN(CC2CC2)C(=O)CN2CCCC2)CC1=O (stereo in doubt) [Example 3, 4-((3aR,5aR,5bR,7aR,11aS,11bR,13aS)-3a-((R)-2-(N-(cyclopropylmethyl)-2-(pyrrolidin-1-yl)acetamido)-1-hydroxyethyl)-1-isopropyl-5a,5b,8,8,11a-pentamethyl-2-oxo-3,3a,4,5,5a,5b,6,7,7a,8,11,11a,11b,12,13,13a-hexadecahydro-2H-cyclopenta[a]chrysen-9-yl)benzoic acid hydrochloride]	8.55	6.5	–	–
–	CC(C)C1=C2[C@H]3CC[C@@H]4[C@@]5(C)CC=C(c6ccc(C(=O)O)cc6)C(C)(C)[C@@H]5CC[C@@]4(C)[C@]3(C)CC[C@@]2([C@@H](O)CN(CCN(C)C)CC2CC2)CC1=O [Example 10, 4-((3aR,5aR,5bR,7aR,11aS,11bR,13aS)-3a-((R)-2-((cyclopropylmethyl)(2-(dimethylamino)ethyl)amino)-1-hydroxyethyl)-1-isopropyl-5a,5b,8,8,11a-pentamethyl-2-oxo-3,3a,4,5,5a,5b,6,7,7a,8,11,11a,11b,12,13,13a-hexadecahydro-2H-cyclopenta[a]chrysen-9-yl)benzoic acid hydrochloride]	8.11	7.9	–	–
–	CC(C)C1=C2[C@H]3CC[C@@H]4[C@@]5(C)CC=C(c6ccc(C(=O)O)cc6)C(C)(C)C5CC[C@@]4(C)[C@]3(C)CC[C@@]2([C@@H](O)CN(CC2CCC2)C(=O)CN(C)C)CC1=O (stereo in doubt) [Example 6, 4-((3aR,5aR,5bR,7aR,11aS,11bR,13aS)-3a-((R)-2-(N-(cyclobutylmethyl)-2-(dimethylamino)acetamido)-1-hydroxyethyl)-1-isopropyl-5a,5b,8,8,11a-pentamethyl-2-oxo-3,3a,4,5,5a,5b,6,7,7a,8,11,11a,11b,12,13,13a-hexadecahydro-2H-cyclopenta[a]chrysen-9-yl)benzoic acid hydrochloride]	8.52	8.9	–	–
–	CC(=O)N(CC1CC1)C[C@H](O)[C@@]12CC[C@]3(C)[C@H](CC[C@@H]4[C@@]5(C)CC=C(c6ccc(C(=O)O)cc6)C(C)(C)[C@@H]5CC[C@]43C)C1=C(C(C)C)C(=O)C2 [Example 11, 4-((3aR,5aR,5bR,7aR,11aS,11bR,13aS)-3a-((R)-2-(N-(cyclopropylmethyl)acetamido)-1-hydroxyethyl)-1-isopropyl-5a,5b,8,8,11a-pentamethyl-2-oxo-3,3a,4,5,5a,5b,6,7,7a,8,11,11a,11b,12,13,13a-hexadecahydro-2H-cyclopenta[a]chrysen-9-yl)benzoic acid]	7.40	24.5	–	–
–	C=C(C)[C@@H]1CC[C@]2(C(=O)O)CC[C@]3(C)[C@H](CC[C@@H]4[C@@]5(C)CC[C@H](OC(=O)CC(C)(C)C(=O)O)C(C)(C)[C@@H]5CC[C@]43C)[C@@H]12 [Bevirimat]	–	–	1.3	significantly lower load reductions
–	CC(C)C1=C2[C@H]3CC[C@@H]4[C@@]5(C)CC=C(c6ccc(C(=O)O)cc6)C(C)(C)[C@@H]5CC[C@@]4(C)[C@]3(C)CC[C@@]2([C@@H](O)CN(CC2CC2)C(=O)CN(C)C)CC1=O [Example 1, 4-((3aR,5aR,5bR,7aR,11aS,11bR,13aS)-3a-((R)-2-(N-(cyclopropylmethyl)-2-(dimethylamino)acetamido)-1-hydroxyethyl)-1-isopropyl-5a,5b,8,8,11a-pentamethyl-2-oxo-3,3a,4,5,5a,5b,6,7,7a,8,11,11a,11b,12,13,13a-hexadecahydro-2H-cyclopenta[a]chrysen-9-yl)benzoic acid]	8.43	17	–	–
–	COCC(=O)N(CC1CC1)C[C@H](O)[C@@]12CC[C@]3(C)[C@H](CC[C@@H]4[C@@]5(C)CC=C(c6cn(CC(=O)O)nn6)C(C)(C)[C@@H]5CC[C@]43C)C1=C(C(C)C)C(=O)C2 [Example 12, 2-(4-((3aR,5aR,5bR,7aR,11aS,11bR,13aS)-3a-((R)-2-(N-(cyclopropylmethyl)-2-methoxyacetamido)-1-hydroxyethyl)-1-isopropyl-5a,5b,8,8,11a-pentamethyl-2-oxo-3,3a,4,5,5a,5b,6,7,7a,8,11,11a,11b,12,13,13a-hexadecahydro-2H-cyclopenta[a]chrysen-9-yl)-1H-1,2,3-triazol-1-yl)acetic acid hydrochloride]	4.69	15500	–	–
6.92 to 7.40	Cc1cn([C@H]2C[C@H](N=[N+]=[N-])[C@@H](CO)O2)c(=O)[nH]c1=O [3′-azido-3′-deoxythymidine]	–	–	–	–
